From PubChem BioAssay AID256 (DTP/NCI, 2004)
Where “and” joins values, the source holds several entries; their conditions need not be identical. Identical values can stand only once. Toxic doses and inconclusive results are not listed. Rule for the calls: active = survival T/C of 150% or more; inactive = T/C below 125% in these data.

Tested on: CD2F1 mice, L1210 leukemia ip, survival T/C
Assay: NCI In Vivo Anticancer Drug Screen. Data for tumor model L1210 Leukemia (intraperitoneal) in CD2F1 (CDF1) mice
Conditions: higher = longer survival
Summary of the method: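 Transplantable tumor in mice; compound-treated vs vehicle-treated groups. Read-out = treated/control ratio of the measured endpoint.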

[1] = endpoint: mean survival time, dose: 100.0 mg/kg/injection, schedule: Q04DX003 (ip), vehicle: saline with Tween-80
[2] = endpoint: mean survival time, dose: 200.0 mg/kg/injection, schedule: Q04DX003 (ip), vehicle: saline with Tween-80
[3] = endpoint: mean survival time, dose: 400.0 mg/kg/injection, schedule: Q04DX003 (ip), vehicle: saline with Tween-80
[4] = endpoint: mean survival time, dose: 100.0 mg/kg/injection, schedule: Q01DX009 (ip), vehicle: Klucel (hydroxypropylcellulose) (HPC)
[5] = endpoint: mean survival time, dose: 200.0 mg/kg/injection, schedule: Q01DX009 (ip), vehicle: Klucel (hydroxypropylcellulose) (HPC)
[6] = endpoint: mean survival time, dose: 100.0 mg/kg/injection, schedule: Q04DX002 (ip), vehicle: saline with Tween-80
[7] = endpoint: mean survival time, dose: 200.0 mg/kg/injection, schedule: Q04DX002 (ip), vehicle: saline with Tween-80
[8] = endpoint: mean survival time, dose: 200.0 mg/kg/injection, schedule: Q01DX009 (ip), vehicle: saline with Tween-80
[9] = endpoint: mean survival time, dose: 100.0 mg/kg/injection, schedule: Q01DX001 (ip), vehicle: saline
[10] = endpoint: mean survival time, dose: 200.0 mg/kg/injection, schedule: Q01DX001 (ip), vehicle: saline
[11] = endpoint: mean survival time, dose: 75.0 mg/kg/injection, schedule: Q01DX001 (ip), vehicle: saline
[12] = endpoint: mean survival time, dose: 150.0 mg/kg/injection, schedule: Q01DX001 (ip), vehicle: saline
[13] = endpoint: mean survival time, dose: 300.0 mg/kg/injection, schedule: Q01DX001 (ip), vehicle: saline
[14] = endpoint: mean survival time, dose: 100.0 mg/kg/injection, schedule: Q01DX001 (ip), vehicle: saline with Tween-80
[15] = endpoint: mean survival time, dose: 400.0 mg/kg/injection, schedule: Q01DX001 (ip), vehicle: saline with Tween-80
[16] = endpoint: mean survival time, dose: 100.0 mg/kg/injection, schedule: Q04DX003 (ip), vehicle: saline
[17] = endpoint: mean survival time, dose: 200.0 mg/kg/injection, schedule: Q04DX003 (ip), vehicle: saline
[18] = endpoint: mean survival time, dose: 400.0 mg/kg/injection, schedule: Q04DX003 (ip), vehicle: saline
[19] = endpoint: mean survival time, dose: 200.0 mg/kg/injection, schedule: Q01DX001 (ip), vehicle: saline with Tween-80

Measured: T/C

OCCc1ccccc1
inactive: endpoint: mean survival time, dose: 50.0 mg/kg/injection, schedule: Q03HX024 (ip), vehicle: saline with Tween-80 102 % of control | endpoint: mean survival time, dose: 100.0 mg/kg/injection, schedule: Q03HX024 (ip), vehicle: saline with Tween-80 100 % of control | [1] 96 % of control | endpoint: mean survival time, dose: 125.0 mg/kg/injection, schedule: Q01DX009 (ip), vehicle: saline 105 % of control | endpoint: mean survival time, dose: 200.0 mg/kg/injection, schedule: Q03HX024 (ip), vehicle: saline with Tween-80 100 % of control | [2] 93 % of control | endpoint: mean survival time, dose: 250.0 mg/kg/injection, schedule: Q01DX009 (ip), vehicle: saline 102 % of control | [3] 93 % of control | endpoint: mean survival time, dose: 500.0 mg/kg/injection, schedule: Q01DX001 (ip), vehicle: saline with Tween-80 106 % of control | endpoint: mean survival time, dose: 500.0 mg/kg/injection, schedule: Q01DX009 (ip), vehicle: saline 103 % of control

O=[N+]([O-])c1ccc2c(c1)-c1[nH]c3ccccc3c1CS2
inactive: [4] 102 % of control | [5] 101 % of control

Nc1ccc(N=Nc2ccc3nccc(N)c3c2)c(N)n1
inactive: [6] 119 % of control | [7] 119 % of control | endpoint: mean survival time, dose: 400.0 mg/kg/injection, schedule: Q04DX002 (ip), vehicle: saline with Tween-80 119 % of control

COC(=O)C(CSCc1ccccc1)NC(=O)C(C)NC(=O)OCc1ccccc1 (stereo not drawn)
inactive: endpoint: mean survival time, dose: 100.0 mg/kg/injection, schedule: Q01DX009 (ip), vehicle: saline with Tween-80 88 % of control | [8] 92 % of control | endpoint: mean survival time, dose: 400.0 mg/kg/injection, schedule: Q01DX009 (ip), vehicle: saline with Tween-80 92 % of control

Nc1cc(Cl)c(I)cc1Cl
inactive: [9] 102 % of control | [10] 102 % of control | endpoint: mean survival time, dose: 400.0 mg/kg/injection, schedule: Q01DX001 (ip), vehicle: saline 101 % of control

CCC1COCC1Cc1cncn1C (stereo not drawn)
inactive: [11] 97 % of control | [12] 101 % of control | [13] 100 % of control

Cc1nn(-c2ccccc2)c2c1C(=O)NC2Cc1ccccc1 (stereo not drawn)
inactive: endpoint: mean survival time, dose: 50.0 mg/kg/injection, schedule: Q04DX002 (ip), vehicle: saline with Tween-80 103 % of control | [6] 100 % of control | [7] 100 % of control

OCC(CO)(CO)CO
inactive: endpoint: mean survival time, dose: 50.0 mg/kg/injection, schedule: Q01DX009 (ip), vehicle: Klucel (hydroxypropylcellulose) (HPC) 93 % of control | [4] 93 % of control | [5] 96 % of control

COc1ccc([I+]c2ccc(OC)cc2)cc1
inactive: endpoint: mean survival time, dose: 1.5 mg/kg/injection, schedule: Q01DX009 (ip), vehicle: saline with Tween-80 101 % of control | endpoint: mean survival time, dose: 3.0 mg/kg/injection, schedule: Q01DX009 (ip), vehicle: saline with Tween-80 104 % of control | endpoint: mean survival time, dose: 6.0 mg/kg/injection, schedule: Q01DX009 (ip), vehicle: saline with Tween-80 107 % of control | endpoint: mean survival time, dose: 12.5 mg/kg/injection, schedule: Q04DX003 (ip), vehicle: saline with Tween-80 97 % of control | endpoint: mean survival time, dose: 25.0 mg/kg/injection, schedule: Q04DX003 (ip), vehicle: saline with Tween-80 93 % of control | endpoint: mean survival time, dose: 50.0 mg/kg/injection, schedule: Q04DX003 (ip), vehicle: saline with Tween-80 93 % of control

CC(C#N)(Nc1ccccc1)c1ccc(Cl)cc1 (stereo not drawn)
inactive: endpoint: mean survival time, dose: 50.0 mg/kg/injection, schedule: Q01DX009 (ip), vehicle: saline with Tween-80 86 % of control | [8] 97 % of control | [2] 87 % of control

CCN(CC)c1ccc(N=Cc2cc(=O)n(C)c3ccccc23)cc1
inactive: [14] 102 % of control | [15] 91 % of control

CN(C)C(=O)c1cc[n+](Cc2ccc(Cl)c(Cl)c2)cc1
inactive: endpoint: mean survival time, dose: 25.0 mg/kg/injection, schedule: Q01DX009 (ip), vehicle: saline 98 % of control | endpoint: mean survival time, dose: 50.0 mg/kg/injection, schedule: Q01DX009 (ip), vehicle: saline 121 % of control | endpoint: mean survival time, dose: 100.0 mg/kg/injection, schedule: Q01DX009 (ip), vehicle: saline 89 % of control

C/C=C(\C(=C\C)c1ccc(OC(=O)c2ccccc2)c(C2CCCCC2)c1)c1ccc(O)c(C2CCCCC2)c1
inactive: [11] 95 % of control | [12] 95 % of control | [13] 103 % of control

O=c1c2nc(-c3ccccc3)oc2ncn1C1OC(CO)C(O)C1O (stereo not drawn)
inactive: endpoint: mean survival time, dose: 100.0 mg/kg/injection, schedule: Q01DX005 (ip), vehicle: saline 100 % of control | endpoint: mean survival time, dose: 200.0 mg/kg/injection, schedule: Q01DX005 (ip), vehicle: saline 98 % of control

O=C(O)c1cc(-c2ccc(Cl)cc2)nc2c1ccc1ccccc12
inactive: [9] 102 % of control | [10] 97 % of control

CS(=O)(=O)c1ccnc2ccccc12
inactive: [16] 98 % of control | [17] 92 % of control | [18] 95 % of control

CN1C(CC(O)(c2ccccc2)c2ccccc2)CCCC1CC(O)(c1ccccc1)c1ccccc1 (stereo not drawn)
inactive: [14] 91 % of control | [19] 96 % of control | [15] 91 % of control

C/C=C1/CC2C=Nc3cc(O)c(OC)cc3C(=O)N2C1 (stereo not drawn)
inactive: endpoint: median survival time, dose: 0.02 mg/kg/injection, schedule: Q01DX005 (ip), vehicle: DMSO 100 % of control | endpoint: median survival time, dose: 0.04 mg/kg/injection, schedule: Q01DX005 (ip), vehicle: DMSO 101 % of control | endpoint: median survival time, dose: 0.08 mg/kg/injection, schedule: Q01DX005 (ip), vehicle: DMSO 104 % of control | endpoint: median survival time, dose: 0.16 mg/kg/injection, schedule: Q01DX005 (ip), vehicle: DMSO 113 % of control | endpoint: median survival time, dose: 0.32 mg/kg/injection, schedule: Q01DX005 (ip), vehicle: DMSO 121 % of control

CN(C)N=Nc1cccc([N+](=O)[O-])c1
inactive: endpoint: mean survival time, dose: 79.0 mg/kg/injection, schedule: Q01DX009 (ip), vehicle: Klucel (hydroxypropylcellulose) (HPC) 107 % of control | endpoint: mean survival time, dose: 118.0 mg/kg/injection, schedule: Q01DX009 (ip), vehicle: Klucel (hydroxypropylcellulose) (HPC) 102 % of control

CC[n+]1ccc(Cc2ccc([N+](=O)[O-])cc2)cc1
inactive: endpoint: mean survival time, dose: 100.0 mg/kg/injection, schedule: Q04DX003 (ip), vehicle: Klucel (hydroxypropylcellulose) (HPC) 105 % of control

c1ccc([Si]c2ccccc2)cc1
inactive: [1] 104 % of control | [2] 102 % of control | [3] 102 % of control

CCN1/C(=C/C=C/C=C\C=C\c2sc3ccc4ccccc4c3[n+]2CC)Sc2ccc3ccccc3c21
inactive: endpoint: mean survival time, dose: 1.25 mg/kg/injection, schedule: Q01DX009 (ip), vehicle: saline with Tween-80 116 % of control and 117 % of control and 112 % of control | endpoint: mean survival time, dose: 2.5 mg/kg/injection, schedule: Q01DX009 (ip), vehicle: saline with Tween-80 116 % of control and 119 % of control and 120 % of control | endpoint: mean survival time, dose: 5.0 mg/kg/injection, schedule: Q01DX009 (ip), vehicle: saline with Tween-80 114 % of control | endpoint: mean survival time, dose: 10.0 mg/kg/injection, schedule: Q01DX009 (ip), vehicle: saline with Tween-80 117 % of control and 118 % of control | endpoint: mean survival time, dose: 20.0 mg/kg/injection, schedule: Q01DX009 (ip), vehicle: saline with Tween-80 114 % of control and 116 % of control | endpoint: mean survival time, dose: 40.0 mg/kg/injection, schedule: Q01DX009 (ip), vehicle: saline with Tween-80 101 % of control and 112 % of control

OCC1OC(n2ncc3c(NO)ncnc32)C(O)C1O (stereo not drawn)
inactive: endpoint: mean survival time, dose: 1.56 mg/kg/injection, schedule: Q01DX005 (ip), vehicle: water 103 % of control | endpoint: mean survival time, dose: 3.13 mg/kg/injection, schedule: Q01DX005 (ip), vehicle: water 107 % of control | endpoint: mean survival time, dose: 6.25 mg/kg/injection, schedule: Q01DX005 (ip), vehicle: water 103 % of control | endpoint: mean survival time, dose: 12.5 mg/kg/injection, schedule: Q01DX005 (ip), vehicle: water 114 % of control | endpoint: mean survival time, dose: 25.0 mg/kg/injection, schedule: Q01DX005 (ip), vehicle: water 88 % of control

CN(C)c1n[nH]c(=S)s1
inactive: [1] 100 % of control | [2] 100 % of control | [3] 88 % of control

OCN(CO)c1ccc2c(c1)Cc1cc(Cl)ccc1-2
inactive: [16] 97 % of control | [17] 100 % of control | [18] 91 % of control

O=c1[nH]cc(Cc2cccc3ccccc23)c(=O)[nH]1
inactive: [14] 92 % of control | [19] 94 % of control | [15] 86 % of control
